Results taken from patent US20240109855A1, “ANTI-QUORUM SENSING, ANTI-BIOFILM, AND INFLAMMATION ATTENUATING COMPOUNDS, COMPOSITIONS, AND METHODS OF USING SAME” (priority 2021, published 2024).
Entries after “also recorded” stand apart in the source; their conditions may differ.

How the values were obtained:
[1] = system: Agrobacterium tumefaciens (KYC55); assay: Quorum sensing inhibition test with bio-reporter KYC55 (TLC overlay); type: cell-based; on Degree of QSI of KYC55: key: −: no inhibition; +: low inhibition; ++: medium inhibition; +++: strong inhibition
Procedure, shortened: (§1)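 Compounds (40 mM in acetonitrile, 20 μl) were spotted on TLC and overlaid with soft agar reporter cultures, incubated overnight at 30 °C. CV026 was in LB with 500 nM 3-oxo-C6 (purple pigment), and KYC55 was in AT medium with 5 nM 3-oxo-C8 and 60 μg/ml X-gal (blue). Inhibition zone diameter was measured.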

[2] = system: L428 cells; conditions: cited from earlier work
[3] = system: Staphylococcus aureus; assay: Diffusion discs test, Staphylococcus aureus; type: cell-based; conditions: discs with 40 mM of compound in 20 μl solvent
Method: (§2) All derivatives were dissolved in acetonitrile to a final concentration of 40 mM. Twenty (20) μl were loaded onto Whatman filter paper discs and dried. Bacillus subtilis, Staphylococcus aureus, and Acinetobacter baumannii were grown in LB (Lenox) O.N. One hundred (100) μl from the starter culture was plated on LB agar (Miller) dishes. Streptococcus sobrinus, and Streptococcus mutans grown in Brain Heary Infusion (BHI, Himedia) O.N. were similarly plated on BHI agar dishes. Discs were laid and incubated O.N. in 37° C. and the diameter of inhibition of bacterial growth was measured.

[4] = system: gram-positive and gram-negative bacteria; assay: Antibacterial activity, overall statement (diffusion discs test); type: cell-based
Method: as §2
The antibacterial activities of derivatives showing QSI are outlined in Table 4. […] Similar to that idea, synthetic derivatives of furanon (product of marine algae) shown in-vivo QSI activity without antibacterial activity followed by immune response of the infected animal. Phenolic compounds decrease QS and virulence in PA01 and Chromobacterium violaceum. There is increasing number of studies, searching for compounds that targeting non-vital processes to combat bacteria.

[5] = system: Streptococcus sobrinus; assay: Diffusion discs test, Streptococcus sobrinus; type: cell-based; conditions: discs with 40 mM of compound in 20 μl solvent
Method: as §2

[6] = system: Bacillus subtilis; assay: Diffusion discs test, Bacillus subtilis; type: cell-based; conditions: discs with 40 mM of compound in 20 μl solvent
Method: as §2

[7] = system: NF-kB; assay: NF-kB-luciferase reporter gene assay in L428 cells; type: cell-based, human; conditions: Table 6 summary; further: key: +: active; −: inactive
Method: FIG. 7 includes a vertical bar graph showing a dose response of NF-kB activation according to an NF-kB reporter gene luciferase assay. L428 cells were stably transfected with the NF-kB luciferase reporter gene. The cells were incubated with the compounds at different concentrations for 2 hours. […] The results represent the percentage of NF-kB activation as compared to vehicle (DMSO) treated cells. All samples were normalized to protein concentration. Mean+SD, Two-way ANOVA and Tukey's multiple comparison test. 95% confidence interval (p-values *≤0.0332, **≤0.0021, ***≤0.0002).
L428 cells stable transfectants with the luciferase NF-kB-Luc reporter gene were generated previously described (Ozer et al., 2009), and were maintained in 500 μg/ml of G418 (G418 disulfate salt, Sigma-Aldrich). The cells (5×10^5 /well in triplicate) were incubated for 2 hrs. in 1 ml of medium containing the solvent (DMSO) or different concentrations of the molecules tested. Cells were then harvested, lysed, and monitored by a luciferase reporter assay kit (Promega) according to the manufacturer's instructions. Measurements were carried out using a luminometer (Promega, GLOMAX™ 20/20 Luminometer). Data were normalized to the protein concentration in each lysate as measured by the Bradford method (BioRad) and normalized to the control. Experiments were repeated at least three times.

[8] = system: L428 cells; assay: in vitro
Method: (§3) The human Hodgkin's Lymphoma derived L428 cell line was used as a model. The cells were grown in RPMI Medium 1640 with 10% FBS, 1% Glutamine and pen-strep (all from Biological Industries, Israel). […] Thirty thousand (30,000) cells/well were placed in 96-well plates with the coumaperine derivatives at different concentrations or with vehicle (DMSO) at a final volume of 200 μl. The plates were incubated for 48 hrs. at 37° C. and 5% CO2 followed by the addition of 50 μl of the XTT reagent tetrazolium-formazan, (Biological Industries, Israel) was added for 2 hrs. at 37° C., 5% CO2. In living cells, mitochondria […] the tetrazolium-formazan salt, thereby generating a color absorbing product at 450 nm. Absorbance was measured at 450 nm and 650 nm in an enzyme-linked immunosorbent assay (ELISA) plate reader (Multiskan Spectrum, Version 1.2), and recorded. Absorption values at 650 nm were subtracted from the blank and the 450 nm values. The results were normalized to the control (treated with DMSO).
(§4) Viability was determined in triplicate in two independent tests. The results were normalized to vehicle (DMSO) treated cells, (100% viability). Mean+SD.

[9] = in vitro; conditions: human, LC50
Method: as §3, §4

[10] = system: PA01; assay: Diffusion discs test, PA01; type: cell-based, P. aeruginosa; design: key: —: no activity; conditions: discs with 40 mM of compound in 20 μl solvent
[11] = system: quorum sensing (CV026 and KYC55); assay: Quorum sensing inhibition, overall statement over the bio-reporter bacteria; type: cell-based
Method: TLC preparation: all derivatives were dissolved in 100% acetonitrile to a concentration of 40 mM. Then placed 20 μlon the same spot on the TLC and let the solvent evaporate before use. CV026: few colonies were transferred to liquid LB (Lenox) for overnight incubation at 30° C. in a 45 degree in orbital shaker. At the O.D. 0.8 3 ml of the starter was added to preheated soft LB agar containing 500 nM of 3-oxo-C6 (Sigma-Aldrich). The mixture was then loaded on the TLC in a glass plate for O.N. incubation in 30° C. The next day inhibition zone was measured, while QS is taking place bacteria produce purple pigment, and when QS is inhibited no pigment is produced. KYC55 (pJZ372) (pJZ384) (pJZ410): 20 μl from the frozen stock into 25 ml AT media (AT buffer×20: 1.57 M KH2PO4 pH=7.3. AT salts mix×20: 300 mM (NH4)2SO4, 13 mM MgSO4, 1.4 mM CaCl2, 0.4 mM FeSO4·7H2O, 0.26 mM MnSO4·H2O. AT media: 50 ml×20 AT-buffer, 50 ml×20 AT-salts, 10 ml 50% (w/v) glucose, add 890 ml to final volume of 1 liter.) For O.N. at 30° C. in an orbital shaker. Into preheated water agar with 25 ml AT-buffer, and 60 μg/ml X-gal and 5 nM 3-oxo-c8 (both from Sigma-Aldrich) 25 ml of the starter was added. Then, that mixture was loaded on the TLC in glass plate for O.N. incubation in 30° C. The next day the inhibition zone was measured. The bacteria produce blue pigment during QS and when QS is inhibited no pigment is produced. KYC55 (pJZ372) (pJZ384) (pJZ410) preservation in tetracycline (1 μg/ml), spectinomycin (100 μg/ml), gentamicin (100 μg/ml) (all antibiotics from Sigma Aldrich) in AT media O.N. then centrifuged and suspend in 15% glycerol frozen and maintained at −80° C.
All the synthesized compounds were evaluated for quorum sensing inhibition against two bioreporter bacteria strains, Chromobacterium violaceum (CV026) and Agrobacterium tumefaciens (KYC55) and the results are summarized in Table 1.

[12] = system: Acinetobacter baumannii; assay: Diffusion discs test, Acinetobacter baumannii; type: cell-based; design: key: —: no activity; conditions: discs with 40 mM of compound in 20 μl solvent
Method: as §2

[13] = system: Streptococcus mutans; assay: Diffusion discs test, Streptococcus mutans; type: cell-based; design: key: —: no activity; conditions: discs with 40 mM of compound in 20 μl solvent
Method: as §2

[14] = system: Chromobacterium violaceum (CV026); assay: Quorum sensing inhibition test with bio-reporter CV026 (TLC overlay); type: cell-based; on Degree of QSI of CV026: key: −: no inhibition; +: low inhibition; ++: medium inhibition; +++: strong inhibition
Procedure, shortened: as §1

[15] = Table 1, coumaperine derivatives, 40 mM in ~20 μL acetonitrile dried on TLC plate, overnight, color intensity

O=C(/C=C/C=C/c1ccccc1)N1CCCCC1 [CP-9, (2E,4E)-5-phenyl-1-(piperidin-1-yl)penta-2,4-dien-1-one]
Degree of QSI of KYC55 [1, 15]: + | QSI activity against KYC55, in words ([1]; running text): low | Cytotoxicity, previously reported [2]: cytotoxic | Staphylococcus aureus, diameter of growth inhibition [3]: 9 mm | Antibacterial ([4]; Table 6 summary): + | Antibacterial activity, in words ([4]; running text): showed antibacterial activity; also recorded: inhibit bacterial growth of the three gram-positive bacteria; also recorded: some antibiotic activity | Streptococcus sobrinus, diameter of growth inhibition [5]: 9 mm | Bacillus subtilis, diameter of growth inhibition [6]: 8 mm | Anti-inflammatory [7]: + | Cytotoxic [8]: + | CC50 ([8]; human, 48 h): 24.7 µM | CC50 at 48 h [9]: 24.7 µM | PA01, diameter of growth inhibition [10]: — | QSI ([11]; Table 6 summary): + | QSI activity overall, in words ([11]; running text): anti QS activity | Acinetobacter baumannii, diameter of growth inhibition [12]: — | Streptococcus mutans, diameter of growth inhibition [13]: — | Degree of QSI of CV026 [14, 15]: ++ | QSI activity against CV026, in words ([14]; running text): moderate
